Experiment [1] concerns the target Melanocortin receptor 5 (Homo sapiens, UniProt P33032). Kind of experiment: Displacement of [125I]NDP-MSH from Melanocortin 5 receptor at 10 uM. A general note: In a radioligand displacement assay an active substance lowers the binding of a labelled ligand.
The test system of experiment [2] is MCR. Kind of experiment: Effective concentration was measured against frog skin MCR cells at 10 e-4 10 e-12 M Concentration. Format: functional, cell-based. Particulars: Anura.
In experiment [3] the target is T1, Melanocyte-stimulating hormone receptor (Homo sapiens, UniProt Q01726). Kind of experiment: Displacement of [125I]NDP-MSH from Melanocortin 1 receptor at 10 uM.
For experiment [4], the target named is Melanocortin receptor 3 (Homo sapiens, UniProt P41968). As to the kind of experiment: Displacement of [125I]NDP-MSH from Melanocortin 3 receptor at 10 uM.
The target of experiment [5] is Melanocortin receptor 4 (Homo sapiens, UniProt P32245). As to the kind of experiment: Displacement of [125I]NDP-MSH from Melanocortin 4 receptor at 10 uM.
Experiment [6] deals with T1, Melanocyte-stimulating hormone receptor. As to the kind of experiment: effective concentration of peptide at 50% maximal cAMP accumulation on Melanocortin 1 receptor. Format: functional.
The test system of experiment [7] is MCR. Kind of experiment: Effective concentration was measured against frog skin(MCR) cells at 10 e-4 10 e-12 M Concentration. Particulars: Anura. Format: functional, cell-based.

Bounds are passed on as bounds.

Sequence of Melanocortin receptor 4 (P32245 whole entry): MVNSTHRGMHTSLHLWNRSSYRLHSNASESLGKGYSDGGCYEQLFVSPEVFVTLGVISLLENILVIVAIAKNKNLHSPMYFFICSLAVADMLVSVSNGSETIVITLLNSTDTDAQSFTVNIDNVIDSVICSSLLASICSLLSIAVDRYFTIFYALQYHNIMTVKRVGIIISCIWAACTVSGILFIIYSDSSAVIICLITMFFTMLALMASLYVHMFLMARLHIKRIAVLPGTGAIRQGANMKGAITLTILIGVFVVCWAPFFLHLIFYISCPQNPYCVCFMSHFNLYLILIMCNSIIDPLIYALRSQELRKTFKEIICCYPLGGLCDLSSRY
T1 sequence (Q01726 whole entry): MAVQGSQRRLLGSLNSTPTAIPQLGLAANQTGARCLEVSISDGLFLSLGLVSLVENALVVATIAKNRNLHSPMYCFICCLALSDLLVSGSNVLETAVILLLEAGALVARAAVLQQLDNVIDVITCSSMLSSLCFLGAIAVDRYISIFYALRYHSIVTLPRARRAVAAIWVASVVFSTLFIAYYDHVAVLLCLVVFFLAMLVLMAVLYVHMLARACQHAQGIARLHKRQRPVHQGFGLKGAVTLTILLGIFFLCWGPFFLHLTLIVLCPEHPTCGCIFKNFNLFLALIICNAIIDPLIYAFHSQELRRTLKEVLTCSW
Sequence of Melanocortin receptor 3 (P41968 whole entry): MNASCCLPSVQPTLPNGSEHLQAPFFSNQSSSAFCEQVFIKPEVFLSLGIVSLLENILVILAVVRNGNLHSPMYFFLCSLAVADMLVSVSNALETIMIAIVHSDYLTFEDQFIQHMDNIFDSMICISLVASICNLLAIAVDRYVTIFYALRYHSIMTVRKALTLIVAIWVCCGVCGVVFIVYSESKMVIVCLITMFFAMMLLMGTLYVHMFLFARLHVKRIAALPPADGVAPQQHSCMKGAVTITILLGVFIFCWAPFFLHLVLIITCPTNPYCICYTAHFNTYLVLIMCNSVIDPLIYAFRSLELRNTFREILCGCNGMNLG
Sequence of Melanocortin receptor 5 (P33032 whole entry): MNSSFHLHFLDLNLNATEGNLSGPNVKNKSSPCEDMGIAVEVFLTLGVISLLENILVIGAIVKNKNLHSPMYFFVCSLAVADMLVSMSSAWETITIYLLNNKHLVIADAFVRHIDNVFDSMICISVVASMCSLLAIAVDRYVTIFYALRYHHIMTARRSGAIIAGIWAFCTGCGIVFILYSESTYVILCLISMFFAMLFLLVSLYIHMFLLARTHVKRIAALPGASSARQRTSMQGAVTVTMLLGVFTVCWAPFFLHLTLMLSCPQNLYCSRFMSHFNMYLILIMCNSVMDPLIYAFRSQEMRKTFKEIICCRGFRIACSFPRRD

In general, IC50 refers to the concentration that gives 50% inhibition. High values mean a need for much substance, low ones inhibition by little substance. As a reminder, the EC50 is the midpoint of the concentration-response curve. Higher therefore signals weaker potency. On to `CC(=O)N[C@@H](Cc1c[nH]cn1)C(=O)N[C@H](Cc1ccccc1)C(=O)N[C@H](CCCN=C(N)N)C(=O)N[C@H](Cc1c[nH]c2ccccc12)C(N)=O`, for which the IC50 in experiment [1], in experiment [3] and in experiment [4] was above 10 µM each time. The compound further registered an EC50 in experiment [2] of 1.9 µM.
As to `CC(=O)N[C@@H](Cc1ccccc1)C(=O)N[C@H](CCCN=C(N)N)C(=O)N[C@H](Cc1c[nH]c2ccccc12)C(N)=O`, the half-inhibitory concentration (IC50) in experiment [1], in experiment [5], in experiment [3] and in experiment [4] was above 10 µM in each case. The compound further registered an EC50 in experiment [2] above 100 µM.
Consider `CC(=O)N[C@@H](Cc1c[nH]cn1)C(=O)N[C@@H](Cc1ccccc1)C(=O)N[C@@H](CCCN=C(N)N)C(=O)N[C@H](Cc1c[nH]c2ccccc12)C(N)=O`, for which the figures for the IC50 in experiment [1], in experiment [3] and in experiment [4] were above 10 µM, 6.35 µM and above 10 µM, respectively. Also, the EC50 in experiment [2] is 2 µM; in experiment [6] it was 1.43 µM.
Consider `CC(=O)N[C@@H](Cc1cnc[nH]1)C(=O)N[C@H](Cc1ccccc1)C(=O)N[C@@H](CCCNC(=N)N)C(=O)N[C@@H](Cc1c[nH]c2ccccc12)C(N)=O`, for which the IC50 in experiment [1] is above 10 µM; in experiment [3] it was 0.615 µM; in experiment [4] it was above 10 µM. Further, the results for the EC50 in experiment [2] and in experiment [6] were 0.2 µM and 0.228 µM, respectively.
For `CC(=O)N[C@@H](Cc1ccccc1)C(=O)N[C@@H](CCCNC(=N)N)C(=O)N[C@H](Cc1c[nH]c2ccccc12)C(N)=O`, the half-inhibitory concentration (IC50) in experiment [1], in experiment [5], in experiment [3] and in experiment [4] was above 10 µM each time. In experiment [2], this compound showed an EC50 above 100 µM.
Turning to `CC(=O)N[C@H](Cc1ccccc1)C(=O)N[C@@H](CCCN=C(N)N)C(=O)N[C@@H](Cc1c[nH]c2ccccc12)C(N)=O`, the IC50 in experiment [1] is above 10 µM; in experiment [5], 2.08 µM; in experiment [3], above 10 µM; in experiment [4], above 10 µM. The compound further showed an EC50 in experiment [7] of 30 µM.
As for `CC(=O)N[C@@H](Cc1c[nH]cn1)C(=O)N[C@H](Cc1ccccc1)C(=O)N[C@H](CCCN=C(N)N)C(=O)N[C@@H](Cc1c[nH]c2ccccc12)C(N)=O`, the IC50 in experiment [1], in experiment [3] and in experiment [4] was above 10 µM in each case. For the same compound, in experiment [2], it took 10 µM to reach a half-maximal effect (EC50).
With `CC(=O)N[C@H](Cc1ccccc1)C(=O)N[C@H](CCCN=C(N)N)C(=O)N[C@@H](Cc1c[nH]c2ccccc12)C(N)=O`, the half-maximal inhibitory concentration (IC50) in experiment [1], in experiment [5], in experiment [3] and in experiment [4] was above 10 µM in each case. The EC50 in experiment [2] was determined as 5.5 µM.
Regarding `CC(=O)N[C@H](Cc1ccccc1)C(=O)N[C@H](CCCNC(=N)N)C(=O)N[C@H](Cc1c[nH]c2ccccc12)C(N)=O`, the IC50 in experiment [1], in experiment [5], in experiment [3] and in experiment [4] was above 10 µM in each case. The same compound had an EC50 in experiment [2] above 100 µM.
Consider `CC(=O)NCC(=O)N[C@H](Cc1ccccc1)C(=O)N[C@@H](CCCN=C(N)N)C(=O)N[C@H](Cc1c[nH]c2ccccc12)C(N)=O`, for which the IC50 in experiment [1], in experiment [5], in experiment [3] and in experiment [4] was above 10 µM each time. Besides, the response in experiment [2] was half-maximal at 4.2 µM (EC50).
On to `CC(=O)N[C@H](Cc1ccccc1)C(=O)N[C@@H](CCCNC(=N)N)C(=O)N[C@H](Cc1c[nH]c2ccccc12)C(N)=O`, for which the IC50 was above 10 µM in experiment [1], 9.16 µM in experiment [5], above 10 µM in experiment [3] and above 10 µM in experiment [4]. In addition, it took 1.5 µM to reach a half-maximal effect in experiment [7] (EC50).

The values are drawn from ChEMBL document CHEMBL1130083, “Discovery of prototype peptidomimetic agonists at the human melanocortin receptors MC1R and MC4R” (J Med Chem, 1997).
